The values below come from article PMC8474115 (Journal of Medicinal Chemistry, 2021).

Several values for one entry are separate records, joined by “and”; a condition that tells them apart may be missing. Identical values can stand only once. Counter-ions that a name gives are not always drawn. Like-named read-outs stand apart in the source and are kept apart here.

One may read the melting point as the temperature of the solid-liquid transition.

Data set [1] addresses T1, 5-HT3R (Cavia porcellus, UniProt O70212).
T1 sequence (O70212 20-490): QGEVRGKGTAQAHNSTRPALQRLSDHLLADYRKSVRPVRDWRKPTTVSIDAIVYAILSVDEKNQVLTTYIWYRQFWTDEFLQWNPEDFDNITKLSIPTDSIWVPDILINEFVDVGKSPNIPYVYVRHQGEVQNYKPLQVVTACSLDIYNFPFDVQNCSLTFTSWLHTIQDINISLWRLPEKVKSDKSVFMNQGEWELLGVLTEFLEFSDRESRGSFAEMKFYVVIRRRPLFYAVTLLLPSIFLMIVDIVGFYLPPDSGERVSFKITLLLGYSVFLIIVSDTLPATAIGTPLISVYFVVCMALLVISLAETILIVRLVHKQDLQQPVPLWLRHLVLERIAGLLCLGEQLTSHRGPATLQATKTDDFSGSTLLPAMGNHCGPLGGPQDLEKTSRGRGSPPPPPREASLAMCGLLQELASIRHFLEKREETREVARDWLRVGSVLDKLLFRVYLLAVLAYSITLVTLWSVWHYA
Particulars: for antagonist effect: percent inhibition of response to 5-HT 3 μM (contraction of guinea pig ileum); for functional classification at 5-HT3R: guinea pig ileum contraction.
Protocol: Isolated guinea pig ileum was employed to test the affinity and the intrinsic activity of the investigated compounds for 5-HT3 receptors. […] A 15 cm ileum segment was excised from the small intestine of male guinea pigs and immersed into a Krebs solution (NaCl 120 mM, KCl 5.6 mM, MgCl2 2.2 mM, CaCl2 2.4 mM, NaHCO3 19 mM, glucose 10 mM). After the first 5 cm length closest to the ileocaecal junction had been discarded 2 cm-long fragments were cut. Each segment of the ileum was placed in a 20 mL chamber of tissue organ bath system (Tissue Organ Bath System – 750 TOBS, DMT, Denmark) filled with the Krebs solution at 37° C, pH 7.4, with constant oxygenation (O2/CO2, 19:1), fixed by the lower end to a rod and by the upper end to the force–displacement transducer. The preparation was allowed to stabilize in organ baths for 60 min under a resting tension of 0.5 g, washing every 15 min with fresh Krebs solution. After the equilibration period, a cumulative concentration–response curve was constructed in each tissue for 5-HT (10 nM – 10 μM) by the method of van Rossum.[64] […] Selected compounds were tested using an additional method. After establishment of the first 5-HT concentration–response curve, washing out of the tissue, and stabilization period, the same tissues were subsequently incubated with one of the concentrations of the tested compound for 15 min and the next cumulative concentration curve to 5-HT was obtained. Only one concentration of a studied compound was tested in each piece of tissue.

Turning to `O=S(=O)(c1ccc(Cl)c(Cl)c1)n1ccc2c(N3CCNCC3)nc3ccccc3c21` (as salt: hydrochloride), the melting point fell in the range of 203 to 205 °C. Regarding `CN1CCN(c2nc3ccccc3c3c2ccn3S(=O)(=O)c2cccc(F)c2)CC1` [Compound 12, 1-[(3-Fluorophenyl)sulfonyl]-4-(4-methylpiperazin-1-yl)-1H-pyrrolo[3,2-c]quinoline hydrochloride], the results for the antagonist effect in data set [1] (30 nM) and in data set [1] (100 nM) were 30% and 74%, respectively. For `O=S(=O)(c1cc(F)ccc1F)n1ccc2c(N3CCNCC3)nc3ccccc3c21` [Compound 27, 1-[(2,5-Difluorophenyl)sulfonyl]-4-(piperazin-1-yl)-1H-pyrrolo[3,2-c]quinoline dihydrochloride], the antagonist effect in data set [1] (300 nM) is 32 (300 nM) %.

For the compound `O=S(=O)(c1ccccc1Br)n1ccc2c(N3CCNCC3)nc3ccccc3c21` (as salt: hydrochloride) [Compound 15, 1-[(2-Bromophenyl)sulfonyl]-4-(piperazin-1-yl)-1H-pyrrolo[3,2-c]quinoline dihydrochloride], the melting point was 158 to 160 °C. As to `CNC1CCN(c2nc3ccccc3c3c2ccn3S(=O)(=O)c2ccccc2)C1` (stereo not drawn) [Compound 10, N-Methyl-1-(1-(phenylsulfonyl)-1H-pyrrolo[3,2-c]quinolin-4-yl)pyrrolidin-3-amine dihydrochloride], in data set [1] (300 nM), the antagonist effect is 48% and 48 (300 nM) %.

In turn, `O=S(=O)(c1ccccc1Cl)n1ccc2c(N3CCNCC3)nc3ccccc3c21` (as salt: hydrochloride) gave a melting point of 157 to 159 °C.

For `O=S(=O)(c1ccc(F)c(F)c1)n1ccc2c(N3CCNCC3)nc3ccccc3c21` (as salt: hydrochloride), the melting point is 180 to 182 °C. Compound `O=S(=O)(c1ccccc1)n1ccc2c(N3CCNCC3)nc3ccccc3c21` (as salt: hydrochloride) [Compound 7, 1-(Phenylsulfonyl)-4-(piperazin-1-yl)-1H-pyrrolo[3,2-c]quinoline dihydrochloride] yielded a melting point of 130 to 132 °C.

Regarding `CN1CCN(c2nc3ccccc3c3c2ccn3S(=O)(=O)c2ccccc2)CC1` [Compound 6, 1-(Phenylsulfonyl)-4-(4-methylpiperazin-1-yl)-1H-pyrrolo[3,2-c]quinoline hydrochloride], the antagonist effect in data set [1] (100 nM) was 28%; in data set [1] (300 nM), 48%. In data set [1], the “functional classification at 5-HT3R” value was “antagonistic properties”. For the compound `O=S(=O)(c1ccccc1)n1ccc2c(N3CCCNCC3)nc3ccccc3c21` [Compound 11, 4-(1,4-Diazepan-1-yl)-1-(phenylsulfonyl)-1H-pyrrolo[3,2-c]quinoline dihydrochloride], the antagonist effect in data set [1] (300 nM) is 53% and 53 (300 nM) %. `O=S(=O)(c1cccc2ccccc12)n1ccc2c(N3CCNCC3)nc3ccccc3c21` (as salt: hydrochloride) gave a melting point of 218 to 220 °C. For `O=S(=O)(c1ccccc1)n1ccc2c(NC3CNC3)nc3ccccc3c21` [Compound 9, N-(Azetidin-3-yl)-1-(phenylsulfonyl)-1H-pyrrolo[3,2-c]quinolin-4-amine dihydrochloride], the antagonist effect in data set [1] (300 nM) was 35% and 35 (300 nM) %. Compound `CN1CCN(c2nc3ccccc3c3c2ccn3S(=O)(=O)c2cccc(F)c2)CC1` (as salt: hydrochloride) [Compound 12, 1-[(3-Fluorophenyl)sulfonyl]-4-(4-methylpiperazin-1-yl)-1H-pyrrolo[3,2-c]quinoline hydrochloride] came in with a melting point of 176 to 177 °C.

Turning to `O=S(=O)(c1ccccc1)n1ccc2c(NC3CNC3)nc3ccccc3c21` (as salt: hydrochloride) [Compound 9, N-(Azetidin-3-yl)-1-(phenylsulfonyl)-1H-pyrrolo[3,2-c]quinolin-4-amine dihydrochloride], the melting point was in the range of 243 to 246 °C. On the same count and under the same terms, the same measure for `Cc1cccc(S(=O)(=O)n2ccc3c(N4CCNCC4)nc4ccccc4c32)c1` (as salt: hydrochloride) [Compound 20, 1-[(3-Methylphenyl)sulfonyl]-4-(piperazin-1-yl)-1H-pyrrolo[3,2-c]quinoline dihydrochloride]: 179 to 181 °C; for `O=S(=O)(c1cccc(Cl)c1)n1ccc2c(N3CCNCC3)nc3ccccc3c21` (as salt: hydrochloride) [Compound 18, 1-[(3-Chlorophenyl)sulfonyl]-4-(piperazin-1-yl)-1H-pyrrolo[3,2-c]quinoline dihydrochloride]: 161 to 163 °C; for `O=S(=O)(c1cc(F)ccc1F)n1ccc2c(N3CCNCC3)nc3ccccc3c21` (as salt: hydrochloride) [Compound 27, 1-[(2,5-Difluorophenyl)sulfonyl]-4-(piperazin-1-yl)-1H-pyrrolo[3,2-c]quinoline dihydrochloride]: 204 to 206 °C. For `O=S(=O)(c1cccc(C(F)(F)F)c1)n1ccc2c(N3CCNCC3)nc3ccccc3c21` [Compound 19, 1-{[3-(Trifluoromethyl)phenyl]sulfonyl}-4-(piperazin-1-yl)-1H-pyrrolo[3,2-c]quinoline dihydrochloride], the antagonist effect came to 21% in data set [1] (100 nM) and 37% in data set [1] (300 nM). For the same compound, the “pD2′” value in data set [1] (antagonist potency, guinea pig ileum) was 6.09.

The compound `O=S(=O)(c1cccc(C(F)(F)F)c1)n1ccc2c(N3CCNCC3)nc3ccccc3c21` (as salt: hydrochloride) [Compound 19, 1-{[3-(Trifluoromethyl)phenyl]sulfonyl}-4-(piperazin-1-yl)-1H-pyrrolo[3,2-c]quinoline dihydrochloride] registered a melting point of 182 to 185 °C.

Turning to `CN1CCN(c2nc3ccccc3c3c2ccn3S(=O)(=O)c2ccccc2)CC1` (as salt: hydrochloride) [Compound 6, 1-(Phenylsulfonyl)-4-(4-methylpiperazin-1-yl)-1H-pyrrolo[3,2-c]quinoline hydrochloride], the melting point is 127 to 129 °C. For the compound `O=S(=O)(c1ccccc1)n1ccc2c(N[C@H]3CCNC3)nc3ccccc3c21` [Compound 8, (S)-1-(Phenylsulfonyl)-N-(pyrrolidin-3-yl)-1H-pyrrolo[3,2-c]quinolin-4-amine dihydrochloride], the antagonist effect in data set [1] (300 nM) is 32% and 32 (300 nM) %. On to `CC(C)c1ccc(S(=O)(=O)n2ccc3c(N4CCNCC4)nc4ccccc4c32)cc1` (as salt: hydrochloride) [Compound 24, 1-[(4-iso-Propylphenyl)sulfonyl]-4-(piperazin-1-yl)-1H-pyrrolo[3,2-c]quinoline dihydrochloride], for which the melting point lay in the range of 212 to 214 °C. On the same count and under the same terms, the figure for `O=S(=O)(c1ccc(F)cc1)n1ccc2c(N3CCNCC3)nc3ccccc3c21` (as salt: hydrochloride) [Compound 22, 1-[(4-Fluorophenyl)sulfonyl]-4-(piperazin-1-yl)-1H-pyrrolo[3,2-c]quinoline dihydrochloride] is 172 to 174 °C. The same measure, in the same setting: the same measure for `CNC1CCN(c2nc3ccccc3c3c2ccn3S(=O)(=O)c2ccccc2)C1` (stereo not drawn) (as salt: hydrochloride) [Compound 10, N-Methyl-1-(1-(phenylsulfonyl)-1H-pyrrolo[3,2-c]quinolin-4-yl)pyrrolidin-3-amine dihydrochloride]: 256 to 258 °C; for `O=S(=O)(c1ccccc1)n1ccc2c(N[C@H]3CCNC3)nc3ccccc3c21` (as salt: hydrochloride) [Compound 8, (S)-1-(Phenylsulfonyl)-N-(pyrrolidin-3-yl)-1H-pyrrolo[3,2-c]quinolin-4-amine dihydrochloride]: 220 to 222 °C. For the compound `CN1CCN(c2nc3ccccc3c3c2ccn3S(=O)(=O)c2cccc(Cl)c2)CC1` [Compound 13, 1-[(3-Chlorophenyl)sulfonyl]-4-(4-methylpiperazin-1-yl)-1H-pyrrolo[3,2-c]quinoline hydrochloride], the antagonist effect is reported as 10% in data set [1] (100 nM) and 44% in data set [1] (300 nM).

Compound `O=S(=O)(c1ccc(C(F)(F)F)cc1)n1ccc2c(N3CCNCC3)nc3ccccc3c21` (as salt: hydrochloride) [Compound 23, 1-{[4-(Trifluoromethyl)phenyl]sulfonyl}-4-(piperazin-1-yl)-1H-pyrrolo[3,2-c]quinoline dihydrochloride] had a melting point of 165 to 167 °C. Consider `O=S(=O)(c1ccccc1)n1ccc2c(N3CCNCC3)nc3ccccc3c21` [Compound 7, 1-(Phenylsulfonyl)-4-(piperazin-1-yl)-1H-pyrrolo[3,2-c]quinoline dihydrochloride], for which the antagonist effect in data set [1] (100 nM) was 26%; in data set [1] (300 nM), 60%. Also, the “functional classification at 5-HT3R” value in data set [1] is on record as “antagonistic properties”. `O=S(=O)(c1ccccc1)n1ccc2c(N3CCCNCC3)nc3ccccc3c21` (as salt: hydrochloride) [Compound 11, 4-(1,4-Diazepan-1-yl)-1-(phenylsulfonyl)-1H-pyrrolo[3,2-c]quinoline dihydrochloride] showed a melting point of 247 to 248 °C. For the compound `COc1cccc(S(=O)(=O)n2ccc3c(N4CCNCC4)nc4ccccc4c32)c1` [Compound 21, 1-[(3-Methoxyphenyl)sulfonyl]-4-(piperazin-1-yl)-1H-pyrrolo[3,2-c]quinoline dihydrochloride], the antagonist effect is listed as 28% in data set [1] (100 nM) and 73% in data set [1] (300 nM).
